Source: US20220257541A1, “Lacosamide for the Treatment of ADD/ADHD” (priority 2019, published 2022)

Experiments:
[1] = system: patient suffering from ADHD; test: Case Study 2: lacosamide mono-therapy in a person with ADHD; format: in vivo, human; conditions: mono-therapy for several weeks
Experimental: We conducted a second case study to validate earlier results of Case Study 1. The patient was a person suffering from ADHD (with no comorbidity such as epilepsy or bipolar disorder). The patient was treated with a lacosamide mono-therapy for several weeks based on the conventional treatment regime for lacosamide (for the treatment of epilepsy and/or bipolar disorder) for subjects weighting 50 kg or more.

[2] = system: children and adolescents with ADHD syndrome; test: Case Study 3: Wisconsin Card Sorting Test (WCST) Flexibility; format: in vivo, human
Experimental: (§1) These tests offered an objective element that contributed to the establishment of the diagnosis.
(§2) Neuropsychological evaluation was repeated after six months on medication, at the end of the study. These evaluations were guided by trained neuropsychologists. Four different evaluations were conducted: Continuous Performance Test (CPT)1, STROOP-P test, Wisconsin Card sorting Test and the Non Verbal Intelligence Test.
(§3) The patients were assessed using the Wisconsin Card Sorting Test (WCST), which is used to measure higher-level cognitive processes, such as attention, perseverance, abstract thinking, and set shifting. It is particularly used in clinical fields to measure perseverative behaviours that refer to an individual's insistence on wrong behaviour.

[3] = system: AMPA, kainate, NMDA, GABAA, GABAB, dopaminergic, serotonergic, adrenergic, muscarinic or cannabinoid receptors; conditions: cited from earlier work
[4] = system: patient with ADHD of the combined type; test: Case Study 1: lacosamide mono-therapy in a child with ADHD; format: in vivo, human
Experimental: We present the case study of a child suffering from ADHD (with no comorbidity such as epilepsy or bipolar disorder). The child was treated with a lacosamide mono-therapy for several weeks based on the conventional treatment regime for lacosamide in children (for the treatment of epilepsy and/or bipolar disorder).
This case study describes the case of a person (“the patient”) with ADHD of the combined type. The patient had not previously been treated with any psychotropic drugs.
Before initiating the selected drug treatment, the patient underwent a full medical examination. In addition, reports from their school teachers as well as parents were collected.
Lacosamide was administered to the patient following the approved treatment regimen for lacosamide (Vimpat®) in epileptic children from 4 years of age.
The treatment was delivered twice a day and went on for >8 weeks.

[5] = system: voltage-gated sodium channels; conditions: cited from earlier work
[6] = system: children and adolescents with ADHD syndrome; test: Case Study 3: Wisconsin Card Sorting Test (WCST) Reasoning; format: in vivo, human; conditions: second evaluation
Experimental: as §1, §2, §3

[7] = system: children and adolescents with ADHD syndrome; test: Case Study 3: Test of Nonverbal Intelligence (TONI-2); format: in vivo, human
Experimental: as §1, §2
The patients were assessed using the Test of Nonverbal Intelligence (TONI-2), which is a language-free measure of abstract problem-solving ability.

[8] = system: reuptake of norepinephrine, dopamine, and serotonin; conditions: cited from earlier work
[9] = system: voltage-gated calcium channels (L-, N-, P/Q, T-type channels); conditions: cited from earlier work
[10] = system: children and adolescents with ADHD syndrome; test: Case Study 3: IQ test prior to and after treatment; format: in vivo, human; conditions: for IQ: Post-treatment, patient
Experimental: IQ was tested prior to and after treatment.

[11] = system: children and adolescents with ADHD syndrome; test: Case Study 3: neuropsychological results analysis (executive function, attention); format: in vivo, human; conditions: after six months on medication
Experimental: as §2
We measured pedagogical values and characteristics of the executive function (Reasoning, Cognitive Flexibility, Attentional function, Intellectual Quotient, impulse inhibition, Perseveration resistance) throughout the course of the treatment with lacosamide.

[12] = system: children and adolescents with ADHD syndrome; test: Case Study 3: adverse reactions or side effects; format: in vivo, human; conditions: all 12 patients, 6 months
From the text: To formalise the control of the treatment, a tool was designed, allowing to record all administrated doses to participants on a daily basis, including any occurrence or increase of adverse reactions or side effects.

[13] = system: children and adolescents with ADHD syndrome; test: Case Study 3: pedagogical evaluation (literary and mathematical skills); format: in vivo, human
Experimental: In order to evaluate the academic level of the patients and later evolution while being treated, we established indicators of literary and mathematical skills of the patients in line with the official assessment of the Ministry of Education of the Dominican Republic.
Academic evolution was assessed 90 days after initiating the treatment and at the end of the 6th month.
In order to measure academic evolution we used different parameters, which are: Spanish language, Reading, Writing, Comprehension of their own reading, Mathematics, Reasoning, argumentation capacities and Problem solving.
Independently, we established at each evaluation the attained level of alphabetisation and the acquisition of literary skills every patient had, as shown in Table 3.
We categorised the sample following the protocol of the local Ministry of Education's Evaluation tool, which will qualify students following the consideration of “Non Acquired”, “Towards Acquisition” or “Acquired” levels.

[14] = end of the study, 17% prior to treatment

## COC[C@@H](NC(C)=O)C(=O)NCc1ccccc1 [lacosamide, (2R)-2-(acetylamino)-N-benzyl-3-methoxypropanamide]
[1]
  ADHD symptomatology: slowly regressed
  cognitive functionality: significant improvement
[2]; after six months on medication
  cognitive flexibility: improving
[2]; second evaluation, 25% in the first evaluation
  patients with Average and High Average scores, WCST Flexibility: 50%
[2]; second evaluation, 41.7% in the first evaluation
  patients in the lowest two categories (Mild and Severe Deterioration), WCST Flexibility: 16.6%
[3]
  effect on AMPA, kainate, NMDA, GABAA, GABAB, dopaminergic, serotonergic, adrenergic, muscarinic or cannabinoid receptors: does not affect
[4]; 250 mg/day
  tolerance of the maximum dose administered: no signs of intolerance or inadequacy
[4]; Day 8, 25 mg every 12 hours (50 mg/day)
  tolerance of the dose: tolerated the dose well
[4]; Day 8, 50 mg/day
  behaviour, sleeping activity, cognitive functionality: No improvement
[4]; Day 8, 50 mg/day, ceased after the first few days of treatment
  adverse reaction observed: sporadic headaches
[4]; Day 15, 100 mg/day
  quality of sleep or cognitive functionality: No improvement
[4]; Day 23, 75 mg every 12 hours (150 mg/day)
  quality of sleep: Improvement
[4]; Day 23, 150 mg/day
  cognitive functionality: improved
[4]; Day 32, after increase to 200 mg/day, symptoms subsequently became milder
  lethargic napping in the afternoon: initially replaced with agitation and hyperactivity
[4]; Day 36, 200 mg/day
  behaviour at school and home: consistent improvement
[4]; Day 49, 125 mg every 12 hours (250 mg/day)
  aggression or irritability at home: did not show any aggression or irritability
[4]; Day 49, 250 mg/day
  conversation in consultation: able to sustain longer logical conversations, at least partially
[4]; Day 63, 250 mg/day
  dysphasia: gradual improvement
  hyperactivity: no signs of hyperactivity
  quality of sleep: dramatically improved
[4]; administered as two separate 75 mg doses
  dose after which sleep pattern and vegetative functions began to stabilize: 150 mg/day
[4]; administered as two separate 100 mg doses
  dose at which higher functions were stabilized: ~200 mg/day
[4]; child, mono-therapy for several weeks
  ADHD symptomatology: regressed dramatically
[4]; twice a day for >8 weeks
  secondary reactions or effects: No secondary reactions or effects were observed
[5]
  fast inactivation of voltage-gated sodium channels: without affecting
  slow inactivation of voltage-gated sodium channels: enhances
[6]; 50% in the first evaluation
  patients in Severe Deterioration category, WCST Reasoning: 25%
[6]; from 41.7%
  patients in the 3 highest categories, WCST Reasoning: 58.3%
[7]; after six months on medication
  non-verbal reasoning: number of subjects who reached the high average level: doubling
[7]; end of the tested period, from 16.7%
  patients scoring high average in TONI-2: 33.3%
[7]; end of the tested period, from 50%
  patients scoring average in TONI-2: 58.3%
[8]
  modulation of reuptake of norepinephrine, dopamine, and serotonin: does not modulate
[9]
  inhibition of voltage-gated calcium channels (L-, N-, P/Q, T-type): not to inhibit
[10]; 12 patients tested
  patients who maintained previous IQ levels: 23%
  patients who raised their IQ values: 77%
  patients with a lowering of the IQ value: In none of the patients
[10]; 2nd High School, Pre-treatment CI-80
  IQ: CI-90
[10]; 2nd High School, Pre-treatment CI-99
  IQ: CI-112
[10]; 2nd Primary, Pre-treatment CI-94
  IQ: CI-106
[10]; 3rd Primary, Pre-treatment CI-82
  IQ: CI-82
[10]; 3rd Primary, Pre-treatment CI-117
  IQ: CI-117
[10]; 5th Primary, Pre-treatment CI-81
  IQ: CI-91
[10]; 5th Primary, Pre-treatment CI-91
  IQ: CI-95
[10]; 5th Primary, Pre-treatment CI-95
  IQ: CI-104
[10]; 5th Primary, Pre-treatment CI-111
  IQ: CI-111
[10]; 6th Primary, Pre-treatment CI-93
  IQ: CI-95
[10]; 7th Primary, Pre-treatment CI-87
  IQ: CI-91
[10]; Bachelor, Pre-treatment CI-108
  IQ: CI-114
[10]; subgroup of 33% of the patients
  IQ progression on average: four
[10]; subgroup of 40% of the patients
  IQ progression average: around 11±2 points
[10]; subgroup that progressed on average by four points
  patients in the subgroup with the smaller IQ progression: 33%
[10]; subgroup with progression average of around 11±2 points
  patients in the subgroup with the larger IQ progression: 40%
[10]; sum for 12 patients tested
  global IQ increase: 60 points
[11]
  Visual Attention, Perseveration Resistance and Impulse Inhibition: did not show the expected improvement
  indicator Attentional Difficulty: improvement
  variables of distraction and impulsivity: no impact
[12]
  side effects: without substantial side effects
[13]; 6-month treatment, tests pre-treatment, after 3 and 6 months
  pedagogic evaluation, all tested competencies: gradual progression
[13]; after 3 months of treatment, initial 25%
  patients who completely acquired Reasoning and Solving Problems (Mathematics): 50%
[13]; end of the study
  subjects at the intermediate level, Towards Acquisition: 25%
[13]; end of the study versus first evaluation
  change in patients who acquired the reading and writing skills: +60%
[13]; [14]
  patients able to understand what they were reading (Comprehensive Reading): 83%
  patients who completely acquired the reading and writing skills: 75%
[13]; end of the study, 83% prior to treatment
  subjects at the non-acquired level (Read, Write, Comprehensive Reading): 0%
[13]; maintained until the end of the study, 25% at the beginning
  proportion of the sample Alphabetised (alphabetical level): 75%
